This passage reports mortality results from patent US20260008757A1, “N-(3-(AMINOMETHYL)-PHENYL)-5-(4-PHENYL)-5-(TRIFLUOROMETHYL)-4,5-DIHYDROISOXAZOL-3-AMINE DERIVATIVES AND SIMILAR COMPOUNDS AS PESTICIDES” (BASF SE, priority 2022, published 2026).

Common to all, as to format: in vivo
One test concerns Anthonomus grandis. Nature of the test: Boll weevil (Anthonomus grandis) egg and larval mortality, microtiter plate diet test. As to conditions: 120 h, egg and larval mortality after 5 days, read-out: mortality in comparison with untreated controls. As to the method: For evaluating control of boll weevil, the test unit consisted of 96-well-microtiter plates containing an insect diet and 5-10 A. grandis eggs.
The compounds were formulated using a solution containing 75% v/v water and 25% v/v DMSO. Different concentrations of formulated compounds were sprayed onto the insect diet at 5 μl, using a custom-built micro atomizer, at two replications.
After application, microtiter plates were incubated at about 25±1° C. and about 75±5% relative humidity for 5 days. Egg and larval mortality were then visually assessed.

A further test concerns Myzus persicae. Nature of the test: Green Peach Aphid (Myzus persicae), mixed life stages, systemic artificial diet test. As to conditions: 72 h, aphid mortality after 3 days, read-out: mortality in comparison with untreated controls. An excerpt: For evaluating control of Green Peach Aphid through systemic means the test unit consisted of 96-well-microtiter plates containing liquid artificial diet under an artificial membrane. The compounds were formulated using a solution containing 75% v/v water and 25% v/v DMSO. Different concentrations of formulated compounds were pipetted into the aphid diet, using a custom-built pipette, at two replications. After application, 5-8 adult aphids were placed on the artificial membrane inside the microtiter plate wells. The aphids were then allowed to suck on the treated aphid diet and incubated at about 23±1° C. and about 50±5% relative humidity for 3 days. Aphid mortality and fecundity was then visually assessed.

The subject of the next test is Heliothis virescens. Nature of the test: Tobacco Budworm (Heliothis virescens) egg and larval mortality, microtiter plate diet test. As to conditions: 120 h, egg and larval mortality after 5 days, read-out: mortality in comparison with untreated controls. The procedure: For evaluating control of Tobacco Budworm, the test unit consisted of 96-well-microtiter plates containing an insect diet and 15-25 H. virescens eggs. The compounds were formulated using a solution containing 75% v/v water and 25% v/v DMSO. Different concentrations of formulated compounds were sprayed onto the insect diet at 10 μl, using a custom-built micro atomizer, at two replications. After application, microtiter plates were incubated at about 28±1° C. and about 80±5% relative humidity for 5 days. Egg and larval mortality was then visually assessed.

Test [1] concerns Frankliniella occidentalis. Nature of the test: Western Flower Thrips (Frankliniella occidentalis) mortality on treated cotton leaf discs, comparative experiment. As to conditions: foliar, 48 h, thrips mortality at 2 DAT, read-out: mortality in comparison with untreated controls. As to the method: The active compounds were formulated by a Tecan liquid handler in 100% cyclohexanone as a 10,000 ppm solution supplied in tubes. The 10,000 ppm solution was serially diluted in 100% cyclohexanone to make interim solutions. These served as stock solutions for which final dilutions were made by the Tecan in 50% acetone:50% water (v/v) into 10 or 20 ml glass vials. A nonionic surfactant (Kinetic®) was included in the solution at a volume of 0.01% (v/v). The vials were then inserted into an automated electrostatic sprayer equipped with an atomizing nozzle for application to plants/insects. Small (˜2″ in height) cotton plants were sprayed with test compounds at concentrations ranging from 300 to 0.01 ppm in acetone/water through the automated VPS. After drying, cotton leaves were removed, and circular leaf discs (˜1 cm diameter) were punched from the treated surface and transferred to clean 20 mL scintillation vials. Ten Western flower thrips (FRANOC) were aspirated into each scintillation vial. The vials with the leaf discs and thrips were kept in an upright incubator at 25° C. and 50% relative humidity with a 14:10 light:dark photoperiod. Each treatment was replicated twice. Thrips mortality was assessed at 2 DAT (days after treatment), counting all thrips both dead and alive.

The next test deals with Spodoptera eridania. Nature of the test: Southern Armyworm (Spodoptera eridania), 2nd instar larvae, on sprayed lima bean plants, comparative experiment. As to conditions: 96 h, 4 days after treatment, read-out: mortality in comparison with untreated controls. The procedure: The active compounds were formulated by a Tecan liquid handler in 100% cyclohexanone as a 10,000-ppm solution supplied in tubes. The 10,000-ppm solution was serially diluted in 100% cyclohexanone to make interim solutions. These served as stock solutions for which final dilutions were made by the Tecan in 50% acetone:50% water (v/v) into 10 or 20 ml glass vials. A nonionic surfactant (Kinetic®) was included in the solution at a volume of 0.01% (v/v). The vials were then inserted into an automated electrostatic sprayer equipped with an atomizing nozzle for application to plants/insects. Lima bean plants (variety Sieva) were grown 2 plants to a pot and selected for treatment at the 1st true leaf stage. Test solutions were sprayed onto the foliage by an auto-mated electrostatic plant sprayer equipped with an atomizing spray nozzle. The plants were dried in the sprayer fume hood and then removed from the sprayer. Each pot was placed into perforated plastic bags with a zip closure. Ten to 11 armyworm larvae were placed into the bag and the bags zipped closed. Test plants were maintained in a growth room at about 25° C. and about 20-40% relative humidity for 4 days, avoiding direct exposure to fluorescent light (14:10 light:dark photoperiod) to prevent trapping of heat inside the bags. Mortality and reduced feeding were assessed 4 days after treatment, compared to untreated control plants.

Take `O=C(NCc1cc(NC2=NOC(c3cc(Cl)cc(Cl)c3)(C(F)(F)F)C2)ccc1F)C1CC1` (centres unmarked) [I-8]: the mortality at 800 ppm in the test with Anthonomus grandis, in the test on Myzus persicae and with Heliothis virescens (800 ppm) was at least 75% throughout. Moreover, the mortality at 2500 ppm with Heliothis virescens (2500 ppm) was at least 75%. In addition, in test [1], the mortality at 100 ppm amounted to 100%. Besides, the mortality at 1 ppm in the test on Spodoptera eridania was determined as 80%.

In the case of `N#CC1(NC(=O)c2cc(NC3=NOC(c4cc(Cl)cc(Cl)c4)(C(F)(F)F)C3)ccc2F)CC1` (centres unmarked) [I-30 of WO2022/171472, reference compound], the mortality at 100 ppm in test [1] stood at 19%. The mortality at 1 ppm in the test with Spodoptera eridania was found to be 0%.

What is called mortality is the percentage killed.
